Laboratory results as given in US12433952B2, “Antibody-drug conjugates targeting folate receptor alpha and methods of use” (ZYMEWORKS BC INC., priority 2022, dated 2025).
Where two headings read alike, the source gives them in different places.

Key:
Format in all cases: cell-based
[1] = system: FRα-negative MDA-MB-468 cells co-cultured with FRα-positive JEG-3; assay: Bystander activity of ADCs (mono-culture vs co-culture, flow cytometry); conditions: 4 days; for Average MDA-MB-468 Viability (%) Co-culture: MDA-MB-468 co-cultured with JEG-3, 2 nM ADC; for Average MDA-MB-468 Viability (%) Co-culture / Average MDA-MB-468 Viability (%) Mono-culture: relative to untreated blank; for Average MDA-MB-468 Viability (%) Mono-culture: MDA-MB-468 mono-culture; for Average MDA-MB-468 Viability (%) Mono-culture / % Bystander Activity / bystander activity: 2 nM ADC; for % Bystander Activity: mono-culture viability compared with co-culture viability; for bystander activity: viability of MDA-MB-468 in co-culture vs mono-culture
Procedure: The ability of the humanized variant v30384 conjugated to various drug-linkers to exert a bystander killing effect on cancer cells was assessed according to the method described below. Bystander killing most commonly occurs after target-specific uptake of an ADC into an antigen-positive cell. Trafficking and degradation of the ADC results in release of active catabolite free drug, which then crosses the cell membrane of nearby cells to elicit cell death.
FRα-positive JEG-3 and FRα-negative MDA-MB-468 cells were seeded either as mono-cultures or co-cultures in a 48-well plate at 20,000 cells and 10,000 cells, respectively, in 100 μL assay media (Minimum Essential Media supplemented with 10% Fetal Bovine Serum (both from Thermo Fisher Scientific, Waltham, MA)). ADCs were diluted to 4 nM in assay media and 100 μL was added to the cell-containing plates (2 nM final ADC concentration). Cells were incubated with ADCs for 4 days under standard culturing conditions (37° C./5% C02). Following incubation, cells were dissociated, washed, and stained using a viability dye, YO—PRO®-1 (ThermoFisher Scientific, Waltham, MA), and an anti-FRα antibody, mirvetuximab (v17716), conjugated to Alexa Fluor®647, for 20 minutes at 4° C. After incubation, cells were washed in FACS buffer (phosphate buffered saline pH 7.4 (ThermoFisher Scientific, Waltham, MA) supplemented with 2% FBS), resuspended in 70 μL FACS buffer per well, and 35 μL per well were analyzed on a BD LSRFortessa™ Cell Analyzer (BD Biosciences, Franklin Lake, NJ). Dead cells were excluded by gating on YO—PRO®-1 staining. The number of JEG-3 and MDA-MB-468 cells were determined by the number of events in the Alexa Fluor®647 positive (FRα-positive) and Alexa Fluor®647 negative (FRα-negative) gates, respectively. Percent viability was calculated as the number of cells in treatment condition divided by the number of cells in the no-treatment condition.

[2] = system: ZR-75-1 (breast cancer); assay: In vitro cytotoxicity of camptothecin analogues (CellTiter-Glo); conditions: Homo sapiens, ZR-75-1, 120 h, read-out: pIC50 ZR-75 (converted)
Outline: (§1)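 Serially diluted compounds in RPMI 1640+10% FBS were added to log-phase cells seeded at 20,000 cells/mL (ZR-75-1 at 10,000 cells/mL). Cells were exposed for 4 d at 37° C, or 5 d for ZR-75-1. Growth inhibition was read by CellTiter-Glo luminescence and IC50 values were derived.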

[3] = system: SK-BR-3 (breast cancer); assay: as above; conditions: Homo sapiens, SK-BR-3, 96 h, read-out: pIC50 SKBR-3 (converted)
Outline: as §1

[4] = system: SKOV-3 (ovarian cancer); assay: as above; conditions: Homo sapiens, SK-OV-3, 96 h, read-out: pIC50 SKOV-3 (converted)
Outline: as §1

[5] = system: MDA-MB-468 (breast cancer); assay: as above; conditions: Homo sapiens, MDA-MB-468, 96 h, read-out: pIC50 MDA-MB-468 (converted)
Outline: as §1

[6] = system: Calu-3 (lung cancer); assay: as above; conditions: Homo sapiens, Calu-3, 96 h, read-out: pIC50 Calu-3 (converted)
Outline: as §1

Row | Compound | IC50 ([2]; 5 d incubation) [nM] | IC50 ([3]; 4 d incubation) [nM] | IC50 ([4]; 4 d incubation) [nM] | IC50 ([5]; 4 d incubation) [nM] | IC50 ([6]; 4 d incubation) [nM] | also measured
1 | v22277-MC-GGFG-AM-DXd1: "negative controls palivizumab (anti-RSV) (v22277) conjugated to MC-GGFG-AM-DXd1 (DAR 8) and MCvcPABC-MMAE (DAR 4)" | – | – | – | – | – | Average MDA-MB-468 Viability (%) Co-culture [1]: 101.8%; Average MDA-MB-468 Viability (%) Mono-culture [1]: 91.6%; % Bystander Activity [1]: −10.2%
2 | CC[C@@]1(O)C(=O)OCc2c1cc1n(c2=O)Cc2c-1nc1cc(F)c(N)cc1c2CNC(=O)OC [Compound 143, Methyl (S)-((9-amino-4-ethyl-8-fluoro-4-hydroxy-3,14-dioxo-3,4,12,14-tetrahydro-1H-pyrano[3′,4′:6,7]indolizino[1,2-b]quinolin-11-yl)methyl)carbamate] | 0.851 | 0.389 | 2.82 | 0.708 | 0.708 | –
3 | CC[C@@]1(O)C(=O)OCc2c1cc1n(c2=O)Cc2c-1nc1cc(F)c(C)cc1c2CN1CCN(c2ccc(N)cc2)CC1 [Compound 108, (S)-11-((4-(4-aminophenyl)piperazin-1-yl)methyl)-4-ethyl-8-fluoro-4-hydroxy-9-methyl-1,12-dihydro-14H-pyrano[3′,4′:6,7]indolizino[1,2-b]quinoline-3,14(4H)-dione] | – | – | – | – | – | IC50 [2]: 18.6 nM; IC50 [3]: 29.5 nM; IC50 [4]: 55 nM; IC50 [5]: 47.9 nM; IC50 [6]: 40.7 nM
4 | v22277-MCvcPABC-MMAE: "negative controls palivizumab (anti-RSV) (v22277) conjugated to MC-GGFG-AM-DXd1 (DAR 8) and MCvcPABC-MMAE (DAR 4)" | – | – | – | – | – | Average MDA-MB-468 Viability (%) Co-culture [1]: 94.2%; Average MDA-MB-468 Viability (%) Mono-culture [1]: 81.3%; % Bystander Activity [1]: −12.9%
5 | CC[C@@]1(O)C(=O)OCc2c1cc1n(c2=O)Cc2c-1nc1cc(F)c(C)cc1c2CN1CCO[C@@H](CO)C1 [Compound 113, (S)-4-ethyl-8-fluoro-4-hydroxy-11-(((R)-2-(hydroxymethyl)morpholino)methyl)-9-methyl-1,12-dihydro-14H-pyrano[3′,4′:6,7]indolizino[1,2-b]quinoline-3,14(4H)-dione] | – | – | – | – | – | IC50 [2]: 2.19 nM; IC50 [3]: 1.95 nM; IC50 [4]: 4.27 nM; IC50 [5]: 3.39 nM; IC50 [6]: 3.02 nM
6 | CC[C@@]1(O)C(=O)OCc2c1cc1n(c2=O)Cc2c-1nc1cc(F)c(N)cc1c2CNS(C)(=O)=O [Compound 146, (S)—N-((9-amino-4-ethyl-8-fluoro-4-hydroxy-3,14-dioxo-3,4,12,14-tetrahydro-1H-pyrano[3′,4′:6,7]indolizino[1,2-b]quinolin-11-yl)methyl)methanesulfonamide] | 6.03 | 1.74 | 11.2 | 4.37 | 4.37 | –
7 | palivizumab MC-GGFG-AM-DXd1: "ADCs comprising palivizumab (v22277) conjugated to MC-GGFG-AM-DXd1 and MCvcPABC-MMAE were included as negative controls" | – | – | – | – | – | bystander activity [1]: negative bystander activity
8 | palivizumab MCvcPABC-MMAE: "ADCs comprising palivizumab (v22277) conjugated to MC-GGFG-AM-DXd1 and MCvcPABC-MMAE were included as negative controls" | – | – | – | – | – | bystander activity [1]: negative bystander activity
9 | CC[C@@]1(O)C(=O)OCc2c1cc1n(c2=O)Cc2c-1nc1cc(F)c(C)cc1c2CNC(=O)NCc1ccc(N)cc1 [Compound 134, (S)-1-(4-aminobenzyl)-3-((4-ethyl-8-fluoro-4-hydroxy-9-methyl-3,14-dioxo-3,4,12,14-tetrahydro-1H-pyrano[3′,4′:6,7]indolizino[1,2-b]quinolin-11-yl)methyl)urea] | 12 | 9.55 | 77.6 | 11.5 | 24.5 | –
10 | CC[C@@]1(O)C(=O)OCc2c1cc1n(c2=O)Cc2c-1nc1cc(F)c(C)cc1c2CNC(=O)NCCO [Compound 136, (S)-1-((4-ethyl-8-fluoro-4-hydroxy-9-methyl-3,14-dioxo-3,4,12,14-tetrahydro-1H-pyrano[3′,4′:6,7]indolizino[1,2-b]quinolin-11-yl)methyl)-3-(2-hydroxyethyl)urea] | 5.01 | 3.98 | 51.3 | 6.31 | 26.3 | –
